Literature values as cited in patent US10471038B2, “Inhibitor of muscle damage or muscle fatigue” ([…] LABORATORY, CO., LTD., priority 2015, dated 2019).

Tested on: calpain
Conditions: mdx mice, intramuscular injection

CC(=O)N[C@@H](CC(C)C)C(=O)N[C@@H](CC(C)C)C(=O)N[C@H](C=O)CCCNC(=N)N [leupeptin]
activation of calpain in muscle tissue and muscle breakdown: inhibited
